Experimental data as given in patent US12264299B2, “Detergent composition” (SYMRISE AG, priority 2018, dated 2025).

System: Corynebacterium xerosis ATCC373 and Staphylococcus aureus ATCC6538
Assay: Microbial counts on inoculated synthetic fabric after washing and drying
Format: cell-based
Conditions: comparison of groups, 24 and 72 hours results
Source text: The objective of the following examples and comparison examples has been to evaluate bactericide and bacteriostatic performance of a specific active composition (SymClariol, Symrise AG) at 0.25% and 1% in a regular fabric softener composition.
Inoculate Corynebacterium xerosis ATCC373 and Staphylococcus aureus ATCC6538 in white synthetic fabric 89% polyester and 11% elastane. SymClariol stands for 1,2-decanediol and is a commercially available product distributed by Symrise AG.
Cut the fabric in pieces of 10 cm×10 cm (100 cm^2) to be inoculate.
It was used: • Corynebacterium xerosis ATCC373 strain in saline solution 0.85% • Staphylococcus aureus ATCC6538 strain in saline solution 0.85% • Sterile Saline solution to wet the fabric • Liquid laundry detergent Tixan Ipê batch 065091 16:30 manufactured in March, 2016 and expiration date March, 2018 • Regular Fabric Softener+Active 1 (SymClariol at 0.25%) • Regular Fabric Softener+Active 2 (SymClariol at 1%) • Regular Fabric Softener Placebo • Wash machine Electrolux
All materials were analyzed before the beginning of the tests and had <10 CFU/g for bacteria and fungi and absence of pathogens. An initial wash of the tissue was carried out with the purpose of reducing the initial microbiological count and subsequent counting for a reduction confirmation of 10 CFU/g and absence of pathogens. […]

## CCCCCCCCC(O)CO (stereo not shown) [SymClariol, 1,2-decanediol]
  bactericide and bacteriostatic performance (in words): improved the bactericide and bacteriostatic performance
